Measured values reported in paper PMC4747340, “A new class of small molecule estrogen receptor-alpha antagonists that overcome anti-estrogen resistance” (Oncotarget, 2015).

Key:
[1] = molecular target: T1, BRCA1: ER complex (Homo sapiens, UniProt P03372); assay: immunoprecipitation-Western blotting of BRCA1:ER complex in MCF-7 cells; type: cell-based
T1 construct: endogenous in cells; host or cells: MCF-7
Experimental: Figure 7 Compound 4631-P/1 disrupts the BRCA1/ER interaction in MCF-7 cells A., B. MCF-7 cells were incubated with the indicated with compound 4631-P/1 (1 or 20 μM) or vehicle only (DMSO) plus E2 (10 nM) for 24 hr; and the cells were harvested for immunoprecipitation of ER (A) or BRCA1 (B), followed by Western blotting for ER and BRCA1. As a negative control, cells treated with vehicle (DMSO) only were subjected to an IP with normal IgG. C. Unprecipitated lysates from cells treated as in panel A were subjected to Western blotting to detect BRCA1, ER, or actin (loading control). The data shown in each panel are representative of three independent experiments.
After the indicated treatments, cells were harvested, and whole cell extracts were prepared in IP buffer [10 mM Tris-HCl (pH 7.4), 150 mM NaCl, 1 mM EDTA, 1 mM EGTA, 1% Triton X-100, 0.5% IGEPAL CA-630 (Sigma), 10% glycerol, 1 mM sodium orthovanadate, and protease inhibitor cocktail (Santa Cruz)] [11, 18]. Each IP was carried out using 2-μg antibody and 500-μg extract protein. […] For each experiment, a control IP using an equal quantity of normal mouse or rabbit IgG (Santa Cruz) was carried out. […]

[2] = molecular target: T2, ER-α (Homo sapiens, UniProt P03372); assay: E2-stimulated ER-α activity, ERE-TK-Luc reporter in transfected DU-145 cells; type: cell-based; settings: DU-145 transfected with ER-α, E2 10 nM, compound 20 μM, 24 hr
T2 construct: expressed in transfected cells; host or cells: DU-145
Experimental: Figure 12 Compound 35446 inhibits the activity of ER-β Subconfluent proliferating DU-145 cells in 24-well dishes were transfected overnight with the ER=α or ER=β expression vector plus the ERE-TK-Luc reporter plasmid (0.25 μg per plasmid/well), washed, and allowed to recover for several hours in fresh culture medium. The cells were then post-incubated for 24 hr to allow gene expression, after which they were treated ± E2 (10 nM) and ± compound 35446 (20 μM) (or compound B2 as a negative control) for 24 hr and assayed for luciferase activity. Luciferase activity is expressed relative to the no E2 control. Values are means ± SEMs of four replicate wells. The data shown in each panel are representative of three independent experiments.
Subconfluent cells in 24-well dishes were transfected overnight with 0.25 μg of each indicated vector plus the ERE-TK-Luc reporter in serum-free DMEM containing Lipofectamine2000 (Life Technologies, Washington, DC). Total transfected DNA was kept constant by addition of control vector. The cells were washed, incubated in phenol red-free DMEM containing 5% charcoal-stripped serum (obtained from the Tissue Culture Shared Resource) (0.2 ml/well) ± E2 (10 nM) ± the indicated compound for 24-hr, and harvested for luciferase assays. For each assay condition was tested in quadrupicate. […]

T1 sequence (P03372 whole entry, one chain of several): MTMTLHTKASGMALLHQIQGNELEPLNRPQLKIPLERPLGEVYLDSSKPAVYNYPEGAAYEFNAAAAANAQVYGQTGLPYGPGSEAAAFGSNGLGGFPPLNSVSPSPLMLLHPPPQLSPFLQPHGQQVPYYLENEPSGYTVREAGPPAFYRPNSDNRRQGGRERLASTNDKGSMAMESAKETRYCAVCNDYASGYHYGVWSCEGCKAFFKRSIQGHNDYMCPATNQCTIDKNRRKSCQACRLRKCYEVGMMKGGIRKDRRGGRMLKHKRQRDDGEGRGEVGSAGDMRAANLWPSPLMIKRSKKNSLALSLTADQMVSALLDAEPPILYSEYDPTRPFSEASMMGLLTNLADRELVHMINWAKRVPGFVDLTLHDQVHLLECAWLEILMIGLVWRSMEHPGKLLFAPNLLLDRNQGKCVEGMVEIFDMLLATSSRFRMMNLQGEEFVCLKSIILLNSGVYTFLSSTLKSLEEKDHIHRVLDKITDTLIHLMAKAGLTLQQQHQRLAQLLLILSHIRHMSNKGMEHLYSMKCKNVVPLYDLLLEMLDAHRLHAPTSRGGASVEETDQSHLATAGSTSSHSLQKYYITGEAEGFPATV
T2 sequence (P03372 whole entry): as the sequence (P03372 whole entry, one chain of several) above

effect on total levels of ER or BRCA1 ([1]; MCF-7, Western blotting of non-precipitated lysates) | Compound | dissociation of the BRCA1: ER complex ([1]; MCF-7, E2 10 nM, compound 0, 1, 20 μM, 24 hr, IP-Western) | inhibition at 20 µM [2] [%]
no effect | O=C(c1cc(Br)ccc1O)c1cc(Br)ccc1O [4631-P/1] | concentration-dependent dissociation of ER and BRCA1 | –
– | O=C(CC(c1ccccc1)N1CCCCC1)c1ccccc1 (stereo not drawn) [35446-L/1, 1,3-diphenyl-3-(piperidin-1-yl)propan-1-one] | – | > 90
